Assay results reported in patent publication US8398759B2, “Environmental friendly anti-microbial adhesion agents for anti-fouling paints and anti-fouling paints containing them” (Biopaint S.R.L., priority 2008, dated 2013).

Assays:
Type in all cases: cell-based
[1] = system: mixed populations of biofilmogenic sea bacteria (M1, T1-T5, F1); experiment: Bio-film formation (crystal violet, OD570) in 24-well microplates, compounds in the free form
Method: (§1) The effect of the anti-microbial-adhesion agent of the invention on microbial adhesion and growth has been estimated by using mixed populations of biofilmogenic sea bacteria isolated from the Tyrrhenian Sea (M1), the Adriatic Sea (T1-T5) and an exhausted aquarium filter (F1).
The tests with the compounds in the free form were carried out by using: • eugenol in a concentration in the range from 0.5 to 4 g/l, solubilized in an organic solvent (methanol); • vanillin in a concentration in the range from 0.1 to 5 g/l; • benzaldehyde derivatives in a concentration of 2 g/l.
The formation of the bio-film was assessed, in an indirect way, by measuring the amount of crystal violet retained by the cells grown adherently.
The tests were performed in 24-well microplates inoculated with sea bacteria from bio-films of cultures grown under static conditions for 2 weeks. The effect of the compounds was determined by culturing the microorganisms (starting OD600=0.5) in synthetic sea water (Tropic Marin Sea Salt; 33 g/l) supplemented with yeast extract (3 g/l) and fungal peptone (5 g/l). After the inoculation, the plates were incubated at 20° C. for 5 days before assessing the formation of a bio-film (OD570) and the growth of plankton (OD600). The bio-film was estimated after staining with crystal violet.
The inhibition of adhesion experiments were carried out in 24-well microplates by using eugenol concentrations comprised between 0.5 and 4 g/l. The eugenol stock solution was obtained by melting 2 ml of the compound into 3 ml of methanol and 5 ml of a 10 M NaOH solution. The control plates were set up by adding the same volume of hydroalcoholic solution without eugenol. The results shown in FIG. 1 were obtained by using the M1 population. The tests were subsequently repeated with all 7 populations, using an eugenol concentration of 0.5 g/l.

[2] = system: mixed populations of biofilmogenic sea bacteria (M1, T1-T5, F1); experiment: Bio-film formation (OD570) in microplates painted with supplemented anti-fouling paints; details: 50 g of agent per kg of paint (E50 FIG. 8; V50 FIG. 9); M1, T1 and T5 populations
Method: as §1
The effectiveness of paints supplemented with the anti-microbial-adhesion agents of the invention in inhibiting the adherent growth of the sea bacteria used in the previous tests was assessed. The formation of a bio-film (OD570) was estimated by the microplate (24 wells) spectrophotometric assay described above. […]
Parallel assays were carried out by using microplates painted with a commercial anti-fouling product (Veneziani Raffaello bianca racing) and non-painted microplates. […]
The paints to be tested were applied only onto the side surface (corresponding to approximately 8.8 cm^2), avoiding to paint the bottom of the wells. […] The plates were inoculated with a cell suspension at an optical density (measured at 600 nm) of 0.5 absorbance units, kept under static incubation, in the dark, for 5 days at 20° C. 5 Days later, the microplates were drained and the growth of the plankton population was determined by a spectrophotometric assessment of the increase in absorbance of the incubation medium. The detection and quantification of a microbial biofilm formation was performed by a spectrophotometric assay. […]

[3] = system: plankton growth of sea bacteria populations M1, T1 and T5; experiment: Plankton growth (OD600) in microplates painted with vanillin-supplemented paints; details: paints V50, V100, V200; three populations (FIG. 10)
Method: The paints to be tested were applied only onto the side surface (corresponding to approximately 8.8 cm^2), avoiding to paint the bottom of the wells. The plates, after being painted, were maintained for 2 days at 20° C., in a dry and ventilated environment, before being used for the adhesion assay. The plates were inoculated with a cell suspension at an optical density (measured at 600 nm) of 0.5 absorbance units, kept under static incubation, in the dark, for 5 days at 20° C. 5 Days later, the microplates were drained and the growth of the plankton population was determined by a spectrophotometric assessment of the increase in absorbance of the incubation medium. The detection and quantification of a microbial biofilm formation was performed by a spectrophotometric assay. The biocide release rate under static conditions was calculated by measuring, through high performance liquid chromatography (HPLC), the increases in time of the biocide concentration in the liquid medium. […]
In FIG. 10, the increases in absorbance (OD600) are expressed as relative values compared to non-treated samples (not painted).

| Compound | persistence of the inhibition effect on adhesion ([1]; M1 population, 10 days of incubation (FIG. 4)) | concentration at which adhesion of microorganisms to solid surfaces is inhibited ([1]; vanillin tested at 0.1 to 5 g/l, free form, T1, M1, T2, T1-T5, F1 populations (FIG. 3a-5)) | reduced adherent growth of sea bacteria compared to the commercial product [2] | effect of vanillin release on plankton growth (OD600 relative to non-painted samples) [3] | reduction in the bio-film formation ([1]; eugenol 0.5 g/l, free form, 5 days at 20° C., all populations except T3 and F1 (FIG. 2)) | inhibition at 500 µg/mL ([1]; eugenol 0.5 g/l, free form, F1 population (FIG. 2)) [%] | inhibition at 500 µg/mL ([1]; eugenol 0.5 g/l, free form, T3 population (FIG. 2)) [%] |
| --- | --- | --- | --- | --- | --- | --- | --- |
| COc1cc(C=O)ccc1O [vanillin] | persists even after 10 days of incubation | above 1 g/l | 1.5-15.8 fold | reduced effect on the plankton growth |  |  |  |
| C=CCc1ccc(O)c(OC)c1 [eugenol] |  |  | 1.2-3.2 fold |  | about 50% | ~60 | ~15 |
